# Measurements published in EP0472783A1, “Anti-tumor compositions and compounds” (PHARMACHEMIE B.V., priority 1990, dated 1992).
# Tests used:
# Format in all cases: cell-based, human
# [1] = tested on: T24 bladder carcinoma (T cells); experiment: PIT method in vitro cell growth inhibition, T24; conditions: amount which inhibits 50% of the cell growth
# Description: (§1) The tests were carried out according to the method of R.van Lambalgen en P. Lelieveld, The PIT method: an automated in vitro technique for drug toxicity testing. Invest.
# (§2) The ID50 values in ng/ml for the above compounds were determined according to the above mentioned procedure of van Lambalgen and Lelieveld.
# [2] = tested on: A 204 rhabdomyosarcoma (A cells); experiment: PIT method in vitro cell growth inhibition, A 204; conditions: amount which inhibits 50% of the cell growth; A 204 cells
# Description: as §1, §2
# [3] = tested on: WiDr colon tumor cells (W cells); experiment: PIT method in vitro cell growth inhibition, WiDr; conditions: amount which inhibits 50% of the cell growth
# Description: as §1, §2
# [4] = tested on: MCF-7 mammary carcinoma (M cells); experiment: PIT method in vitro cell growth inhibition, MCF-7; conditions: amount which inhibits 50% of the cell growth; MCF-7 cells
# Description: as §1, §2
# [5] = tested on: IgR-37 melanoma (Z cells); experiment: PIT method in vitro cell growth inhibition, IgR-37; conditions: amount which inhibits 50% of the cell growth; IgR-37 cells
# Description: as §1, §2
smiles,measurement,setting,value
"N.N.[Cl][Pt][Cl] [cis platium, cis-(NH3)2PtCl2]",ID50 values in ng/ml T24,[1],268 ng/mL
same,ID50 values in ng/ml A 204,[2],871 ng/mL
same,ID50 values in ng/ml WiDr,[3],624 ng/mL
same,ID50 values in ng/ml MCF-7,[4],850 ng/mL
same,ID50 values in ng/ml IgR-37,[5],878 ng/mL
